Values quoted from earlier work, collected in US20240173338A1, “PREPARATION AND ACTIVITY CHARACTERIZATION OF CANNABICITRAN ENANTIOMERS” (University of North Carolina at Wilmington, priority 2022, published 2024).

How the values were obtained:
[1] = target: GPR55 (Homo sapiens, UniProt Q9Y2T6)
[2] = test system: multiple TRPs
[3] = target: T1, 5-HT1A (Homo sapiens, UniProt P08908)
T1 sequence (P08908 1-422): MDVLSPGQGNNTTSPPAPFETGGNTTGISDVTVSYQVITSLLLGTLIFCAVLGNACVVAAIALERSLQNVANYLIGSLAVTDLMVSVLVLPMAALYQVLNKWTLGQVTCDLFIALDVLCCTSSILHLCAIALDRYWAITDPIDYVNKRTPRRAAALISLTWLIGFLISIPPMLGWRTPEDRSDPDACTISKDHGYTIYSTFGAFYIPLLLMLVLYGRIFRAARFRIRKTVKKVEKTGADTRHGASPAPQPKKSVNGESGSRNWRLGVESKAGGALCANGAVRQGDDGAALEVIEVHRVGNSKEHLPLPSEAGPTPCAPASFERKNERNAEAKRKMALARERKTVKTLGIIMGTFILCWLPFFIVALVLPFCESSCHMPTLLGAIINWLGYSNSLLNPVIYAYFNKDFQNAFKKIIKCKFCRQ

[4] = rabbits
[5] = target: CB2 (Homo sapiens, UniProt P34972)
[6] = target: CB1 (Homo sapiens, UniProt P21554)
Sequence of CB1 (P21554 whole entry, species assumed): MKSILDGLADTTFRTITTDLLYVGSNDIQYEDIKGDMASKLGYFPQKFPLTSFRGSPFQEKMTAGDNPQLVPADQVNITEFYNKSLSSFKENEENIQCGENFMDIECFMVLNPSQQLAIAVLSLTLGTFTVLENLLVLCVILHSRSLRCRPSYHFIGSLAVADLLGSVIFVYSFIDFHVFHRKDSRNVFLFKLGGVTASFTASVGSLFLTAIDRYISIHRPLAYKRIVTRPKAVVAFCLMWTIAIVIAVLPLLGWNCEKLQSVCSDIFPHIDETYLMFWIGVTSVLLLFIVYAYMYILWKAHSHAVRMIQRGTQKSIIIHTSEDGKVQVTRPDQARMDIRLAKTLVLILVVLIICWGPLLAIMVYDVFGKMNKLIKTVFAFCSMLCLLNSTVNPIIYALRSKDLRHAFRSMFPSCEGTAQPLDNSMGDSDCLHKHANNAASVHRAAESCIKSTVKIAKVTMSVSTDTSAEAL

Sequence of GPR55 (Q9Y2T6 whole entry, species assumed): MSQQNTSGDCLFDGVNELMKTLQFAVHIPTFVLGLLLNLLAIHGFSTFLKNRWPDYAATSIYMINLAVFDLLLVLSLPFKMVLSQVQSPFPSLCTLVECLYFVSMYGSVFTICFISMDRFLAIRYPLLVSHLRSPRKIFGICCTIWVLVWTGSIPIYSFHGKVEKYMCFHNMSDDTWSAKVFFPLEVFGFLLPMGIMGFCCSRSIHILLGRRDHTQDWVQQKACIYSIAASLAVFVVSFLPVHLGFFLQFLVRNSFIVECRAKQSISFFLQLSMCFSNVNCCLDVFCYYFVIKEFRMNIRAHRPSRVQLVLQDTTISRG
Sequence of CB2 (P34972 whole entry, species assumed): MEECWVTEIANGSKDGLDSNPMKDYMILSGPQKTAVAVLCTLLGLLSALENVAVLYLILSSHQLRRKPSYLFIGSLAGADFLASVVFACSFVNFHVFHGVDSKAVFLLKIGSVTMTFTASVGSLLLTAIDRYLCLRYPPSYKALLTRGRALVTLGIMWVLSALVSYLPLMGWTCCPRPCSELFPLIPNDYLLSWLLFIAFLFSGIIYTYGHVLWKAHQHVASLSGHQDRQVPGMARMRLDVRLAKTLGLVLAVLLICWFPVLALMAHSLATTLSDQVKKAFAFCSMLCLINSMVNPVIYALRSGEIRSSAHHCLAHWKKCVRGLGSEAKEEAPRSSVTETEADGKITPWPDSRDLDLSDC

trans-CBD [(−)-2]
binding to GPR55 [1]: known to bind | binding to multiple TRPs [2]: known to bind | binding to 5-HT1A [3]: known to bind

CCCCCc1cc2c3c(c1)O[C@]1(C)CC[C@@H]([C@H]3C1)C(C)(C)O2 [CBT-C (3), cannabicitran]
effect on intraocular pressure [4]: reduces intraocular pressure

trans-CBD [(+)-2]
binding to CB2 [5]: bind strongly | binding to CB1 [6]: bind strongly
